Experimental data reported in US9617330B2, “Chemorepulsion of cells” (Celtaxsys, Inc., priority 2006, dated 2017).

B1: S. typhimurium Flagellin: TLR ligand; accession M11332 (protein, UniProt P06179 2-495, looked up)
Flagellin: AQVINTNSLSLLTQNNLNKSQSALGTAIERLSSGLRINSAKDDAAGQAIANRFTANIKGLTQASRNANDGISIAQTTEGALNEINNNLQRVRELAVQSANSTNSQSDLDSIQAEITQRLNEIDRVSGQTQFNGVKVLAQDNTLTIQVGANDGETIDIDLKQINSQTLGLDTLNVQQKYKVSDTAATVTGYADTTIALDNSTFKASATGLGGTDQKIDGDLKFDDTTGKYYAKVTVTGGTGKDGYYEVSVDKTNGEVTLAGGATSPLTGGLPATATEDVKNVQVANADLTEAKAALTAAGVTGTASVVKMSYTDNNGKTIDGGLAVKVGDDYYSATQNKDGSISINTTKYTADDGTSKTALNKLGGADGKTEVVSIGGKTYAASKAEGHNFKAQPDLAEAAATTTENPLQKIDAALAQVDTLRSDLGAVQNRFNSAITNLGNTVNNLTSARSRIEDSDYATEVSNMSRAQILQQAGTSVLAQANQVPQNVLSLLR
B2: CXCL7: chemokine (protein, UniProt P02775 35-128, looked up)
Platelet basic protein: SSTKGQTKRNLAKGKEESLDSDLYAELRCMCIKTTSGIHPKNIQSLEVIGKGTHCNQVEVIATLKDGRKICLDPDAPRIKKIVQKKLAGDESAD
B3: CCL8: chemokine (protein, UniProt P80075 24-99, looked up)
C-C motif chemokine 8: QPDSVSIPITCCFNVINRKIPIQRLESYTRITNIQCPKEAVIFKTKRGKEVCADPKERWVRDSMKHLDQIFQNLKP
B4: CCL15: chemokine (protein, UniProt Q16663 22-113, looked up)
C-C motif chemokine 15: QFTNDAETELMMSKLPLENPVVLNSFHFAADCCTSYISQSIPCSLMKSYFETSSECSKPGVIFLTKKGRQVCAKPSGPGVQDCMKKLKPYSI
B5: CCL19: chemokine (protein, UniProt Q99731 22-98, looked up)
C-C motif chemokine 19: GTNDAEDCCLSVTQKPIPGYIVRNFHYLLIKDGCRVPAVVFTTLRGRQLCAPPDQPWVERIIQRLQRTSAKMKRRSS

Columns and labels:
B cells = test: High throughput transmigration assay (Example 9), chemorepulsion; type: cell-based, human; parameters: key: ratio of chemorepulsion (CR) to spontaneous migration (SM), CR/SM; details: mean of three donors at concentration of highest activity
Excerpt: (§1) An agent's repellent index is the ratio of chemorepulsion (CR) to spontaneous migration (SM) induced by the agent, i.e., [(CR)/(SM)]. […] For example, in calculating a RI for an agent, migratory responses including chemorepulsion (CR) and spontaneous migration (SM) may be measured over several decades or log scales of concentration. If, over any two consecutive measurements at concentrations which differ by at least 10 fold, the ratio of CR to SM at each of the two contiguous measurements is equal to or greater than 1.2, then the agent is considered a validated chemorepellent.
(§2) For primary human T cells, up to 80 ml of blood is drawn from a human donor in sodium heparin Vacutainer tubes (Becton-Dickinson). The blood (between 10 and 15 ml per tube) is then layered onto 30 ml of Lymphocyte Separation Medium (LSM) (Cellgro, Herndon, Va.) in a 50 ml conical centrifuge tube and centrifuged for 20 minutes at 2440×g in a swinging bucket rotor. After removing the majority of the plasma from the top of each tube, the peripheral blood mononucleocyte (PBMC) layer is removed and transferred to fresh 50 ml conical centrifuge tubes. The tubes are then filled to 50 ml with IMDM and centrifuged for 10 minutes at 500×g. All but approximately 5 ml of the supernatant is then removed and the pellet resuspended with 25 ml IMDM and the centrifugation repeated. After removal of the supernatant, the cells are resuspended and combined to one 50 ml tube (per subject) and brought to a total volume of 50 ml. The cells are then counted using a hemacytometer (Reichert). After centrifugation under the same conditions, the supernatant is removed and the cells processed using the appropriate Miltenyi Biotec (Auburn, Calif.) negative selection kit to enrich for the desired cell type according to manufacturers instructions. The resulting purified cells are then diluted to 50 ml with IMDM. After centrifugation at 500×g for 10 minutes, the supernatant is removed and the cells resuspended in 15 ml IMDM supplemented with 0.5% heat inactivated fetal calf serum (FCS) (ATCC, Manassas, Va.). After another centrifugation for 10 minutes at 500×g, the supernatant is again removed and the cells resuspended in 7 ml 0.5% FCS in IMDM (assay medium) and transferred to a 15 ml conical centrifuge tube. The cells are then quantitated using a hemacytometer. When enriching for monocytes, the concentration of cells is adjusted to 2×10^7 per ml by centrifugation and removal of the appropriate volume of assay medium. For all other cell types, the tube cap is replaced with one from a 25 cm^2 tissue culture flask (Corning) and the cells stored overnight in a humidified 37° C. incubator with 5% CO2. The concentration of the cells is adjusted as for monocytes just prior to transmigration assay of Example 9.
(§3) Migration away from a chemical or biological agent (chemorepulsion (CR)) was measured using ChemoTx plates (Neuroprobe). These plates contain a planar polycarbonate or polyester membrane that has been etched and perforated so that cells can move along the etched tracks and fall through perforation holes, enabling the cells to be collected and the number of migrated cells quantified (FIGS. 5-6). Several dilutions (normally 4 in 10-fold increments) are prepared of the agent of interest. For neutrophils, plates with 3 μm pore membranes are used, while for all other primary cell types, 5 μm pore membranes are used. Membranes may, or may not, be coated with polyvinylpyrrolidine (PVP) as a wetting agent.
(§4) For spontaneous migration controls and chemorepulsion (CR) assays, 31 μl of assay medium is pipetted into the lower well of the transmigration apparatus (FIGS. 5-6). For spontaneous migration controls and chemoattraction (CA) assays, 29 μl of assay medium is pipetted into upper chamber of the transmigration apparatus (FIG. 5). For CR, the upper well assay medium contains the agent or candidate chemorepellent. […]

Monocytes = test: as above; type: cell-based, human; details: mean of three donors at concentration of highest activity, range 0.00125-1.25 μM
Excerpt: as §1, §2
It is noted that this procedure may be used to isolate and/or purify monocytes. In the monocyte purification method, a further step is included for platelet removal via the use of CD61 microbeads also purchased from Miltenyi Biotec (Auburn, Calif.).
as §3
For spontaneous migration controls and chemorepulsion (CR) assays, 31 μl of assay medium is pipetted into the lower well of the transmigration apparatus (FIGS. 5-6). […]

Neutrophils = test: as above; type: cell-based, human
CD4+ = test: as above; type: cell-based, human; details: mean of three donors at concentration of highest activity, range 0.00125-1.25 μM
Excerpt: as §1, §2, §3, §4

[1] = test system: Human primary CD4+ lymphocytes; test: Trans-well migration assay (Example 3 method), unimodal fugetaxin test; type: cell-based; parameters: key: A “+” in the Table indicates a positive hit as a unimodal fugetaxin, as that term is defined herein, for that particular cell type; details: methods of Example 3
[2] = test system: Human primary CD8+ lymphocytes; test: as above; type: cell-based; parameters: key: A “+” in the Table indicates a positive hit as a unimodal fugetaxin, as that term is defined herein, for that particular cell type; details: methods of Example 3
[3] = test system: Human primary neutrophils; test: as above; type: cell-based; parameters: key to Unimodal fugetaxin hit, Neutrophils: A “+” in the Table indicates a positive hit as a unimodal fugetaxin, as that term is defined herein, for that particular cell type; details: for Unimodal fugetaxin hit, Neutrophils: human neutrophils, methods of Example 3
CD8+ = test: High throughput transmigration assay (Example 9), chemorepulsion; type: cell-based, human; details: mean of three donors at concentration of highest activity, range 0.00125-1.25 μM
Excerpt: as §1, §2, §3, §4

Monocyte = test: Trans-well migration assay (Example 1), net migratory response; details: Monocyte; net observed response
[4] = test system: Eo-HL60 (HL-60 clone 15 differentiated to eosinophil-like phenotype); test: as above; type: cell-based, human; details: net observed response
T lymphocytes = test: High throughput transmigration assay (Example 9), chemorepulsion; type: cell-based, human; details: one donor, triplicate, ± SD
Excerpt: as §1, §2, §3, §4

[5] = Neutrophils, mean of three donors at concentration of highest activity, range 0.00125-1.25 μM

| Molecule | Repellent Index (B cells; range 0.00125-1.25 μM) | Repellent Index (Monocytes) | Repellent Index (Neutrophils; [5]) | Repellent Index (CD4+) | Unimodal fugetaxin hit, CD4+ [1] | Unimodal fugetaxin hit, CD8+ [2] | Unimodal fugetaxin hit, Neutrophils [3] | further results |
| --- | --- | --- | --- | --- | --- | --- | --- | --- |
| CCL2: chemokine | 1.5 | 1.7 | – | – | – | – | – | – |
| Elafin: elastase inhibitor (AQEPVKGPVSTKPGSCPIILIRCAMLNPPNRCLKDTDCPGIKKCCEGSCGMACFVPQ; UniProt P19957 61-117, looked up) | – | – | 2.0 | 1.3 | – | – | – | Repellent Index (Neutrophils; neutrophils, 0.00125 μM, one donor, triplicate, ± SD): 1.33 ± 0.28; Repellent Index (Neutrophils; neutrophils, 0.0125 μM, one donor, triplicate, ± SD): 1.31 ± 0.29; Repellent Index (Neutrophils; neutrophils, 0.125 μM, one donor, triplicate, ± SD): 1.48 ± 0.22; Repellent Index (Neutrophils; neutrophils, 1.25 μM, one donor, triplicate, ± SD): 2.42 ± 0.52 |
| Galectin-3: carbohydrate binding protein (galectin), full-length, purchased; accession P17931/BAA22164/NP_002297 | – | – | 1.6 | – | + | + | + | chemotactic (chemoattractant) versus fugetactic (chemorepellent) response of neutrophils ([3]; neutrophils, 1 hour, FIGS. 3 and 4, at 10 uM where stated): almost three times as fugetactic (chemorepellent) as chemotactic (chemoattractant); Repellent Index (CD8+): 1.3; Migratory Response (Monocyte): chemorepulsion |
| HSP70: heat shock protein; accession AAA02807 | – | – | 8.8 | 4.9 | + | – | + | Migratory Response [4]: chemorepulsion; Repellent Index (CD8+): 11.6; Repellent Index (T lymphocytes; 0.00125 μM): 0.96 ± 0.13; Repellent Index (T lymphocytes; 0.0125 μM): 1.15 ± 0.24; Repellent Index (T lymphocytes; 0.125 μM): 1.65 ± 0.35; Repellent Index (T lymphocytes; 1.25 μM): 14.56 ± 0.61 |
| Pam3CSK4 [reference compound] | – | – | 4.9 | – | + | + | + | Migratory Response [4]: chemorepulsion |
| B1 | – | – | – | – | + | + | + | Repellent Index (Neutrophils; Neutrophils, mean of three donors at concentration of highest activity, range 0.01-10 μg/ml): 5.5; Repellent Index (B cells; range 0.01-10 μg/ml): 1.7; Migratory Response (Monocyte): chemorepulsion |
| B2 | – | 1.4 | 3.9 | – | – | – | – | – |
| B3 | 2.6 | 2.3 | – | – | – | – | – | – |
| B4 | – | 1.4 | – | – | – | – | – | – |
| B5 | 2.0 | – | 1.5 | 1.7 | – | – | – | – |
